What was measured:
Test in all cases: relative viability (nuclei count vs DMSO), 5 days (fraction); higher = more cells survive
[1] = compound: Cc1cnc(CNC(=O)c2c(=O)c3ccc(N4CCCN(C)CC4)nc3n3c2sc2ccccc23)cn1 [CX-5461] + Cc1nc(Nc2ncc(C(=O)Nc3c(C)cccc3Cl)s2)cc(N2CCN(CCO)CC2)n1 [Dasatinib] (partner 0.075 µM)
Summary of the method: (§1)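 One day after seeding in 1536-well plates, lung cancer cell lines were dosed by pin tool. Dosing was either single-drug or a fixed anchor-drug dose plus five library-drug doses (not always all listed) in √10 steps. After 5 days, nuclei were stained in one fix-and-stain step and counted on 4× images, and relative viability is the nuclei count of treated wells over that of vehicle wells, given as the median of duplicate plates.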

[2] = compound: O=C(Nc1cc(C(F)(F)F)cc(C(F)(F)F)c1)c1cc(Cl)ccc1O [IMD-0354] + CS(=O)(=O)N1CCN(Cc2cc3nc(-c4cccc5[nH]ncc45)nc(N4CCOCC4)c3s2)CC1 [Pictilisib] (partner 1 µM)
Summary of the method: as §1

[3] = compound: O=C(Nc1cc(C(F)(F)F)cc(C(F)(F)F)c1)c1cc(Cl)ccc1O [IMD-0354] + CC(=O)Nc1cccc(-n2c(=O)n(C3CC3)c(=O)c3c(Nc4ccc(I)cc4F)n(C)c(=O)c(C)c32)c1 [Trametinib] (partner 0.02 µM)
Summary of the method: as §1

[4] = compound: O=C(Nc1cc(C(F)(F)F)cc(C(F)(F)F)c1)c1cc(Cl)ccc1O [IMD-0354] + COc1cc2c(Oc3ccc(NC(=O)C4(C(=O)Nc5ccc(F)cc5)CC4)cc3F)ccnc2cc1OCCCN1CCOCC1 [Foretinib] (partner 0.25 µM)
Summary of the method: as §1

| Cell Line | relative viability ([1]; first compound 0.01 µM) | relative viability ([1]; first compound 0.03162 µM) | relative viability ([1]; first compound 0.1 µM) | relative viability ([1]; first compound 0.3162 µM) | relative viability ([1]; first compound 1 µM) | relative viability ([2]; first compound 0.04 µM) | relative viability ([2]; first compound 0.1265 µM) | relative viability ([2]; first compound 0.4 µM) | relative viability ([2]; first compound 1.265 µM) | relative viability ([2]; first compound 4 µM) | relative viability ([3]; first compound 0.04 µM) | relative viability ([3]; first compound 0.1265 µM) | relative viability ([3]; first compound 0.4 µM) | relative viability ([3]; first compound 1.265 µM) | relative viability ([3]; first compound 4 µM) | relative viability ([4]; first compound 0.04 µM) | relative viability ([4]; first compound 0.1265 µM) | relative viability ([4]; first compound 0.4 µM) | relative viability ([4]; first compound 1.265 µM) | relative viability ([4]; first compound 4 µM) |
| --- | --- | --- | --- | --- | --- | --- | --- | --- | --- | --- | --- | --- | --- | --- | --- | --- | --- | --- | --- | --- |
| NCI-H1666 | 0.786 | 0.802 | 0.597 | 0.757 | 0.591 | 0.308 | 0.434 | 0.295 | 0.176 | 0.201 | 0.738 | 0.849 | 0.719 | 0.872 | 0.523 | 0.99 | 0.982 | 0.842 | 0.441 | 0.351 |
| LC-2-ad | 0.59 | 0.713 | 0.546 | 0.406 | 0.27 | 0.494 | 0.424 | 0.404 | 0.106 | 0.136 | 0.968 | 0.877 | 0.54 | 0.348 | 0.189 | 0.939 | 0.885 | 0.524 | 0.249 | 0.205 |
| SW 1573 | 0.528 | 0.396 | 0.302 | 0.502 | 0.17 | 0.577 | 0.468 | 0.263 | 0.418 | 0.137 | 0.631 | 0.554 | 0.384 | 0.107 | 0.105 | 0.891 | 0.928 | 0.579 | 0.61 | 0.123 |
| ChaGo-K-1 | 0.57 | 0.57 | 0.575 | 0.469 | 0.253 | 1.11 | 1.22 | 0.495 | 0.216 | 0.301 | 0.918 | 0.872 | 0.68 | 0.718 | 0.233 | 0.998 | 0.875 | 0.747 | 0.531 | 0.258 |
| COR-L 105 | 0.3 | 0.356 | 0.299 | 0.325 | 0.255 | 0.439 | 0.351 | 0.303 | 0.278 | 0.293 | 0.435 | 0.448 | 0.455 | 0.342 | 0.318 | 1.25 | 0.808 | 0.67 | 0.932 | 0.296 |
| NCI-H1975 | 0.367 | 0.388 | 0.302 | 0.441 | 0.2 | 0.329 | 0.316 | 0.26 | 0.155 | 0.137 | 0.4 | 0.379 | 0.271 | 0.159 | 0.138 | 1.01 | 1.03 | 0.483 | 0.18 | 0.16 |
| NCI-H1993 | 0.657 | 0.588 | 0.499 | 0.621 | 0.473 | 0.773 | 0.783 | 0.706 | 0.617 | 0.662 | 0.53 | 0.353 | 0.557 | 0.507 | 0.401 | 0.768 | 0.869 | 0.699 | 0.477 | 0.559 |
| RERF-LC-KJ | 0.913 | 0.94 | 0.809 | 0.924 | 0.522 | 0.518 | 0.595 | 0.542 | 0.233 | 0.226 | 1.02 | 0.931 | 0.663 | 0.557 | 0.174 | 0.934 | 0.93 | 0.568 | 0.471 | 0.214 |
| NCI-H23 | 0.75 | 0.892 | 0.834 | 1.03 | 0.5 | 0.53 | 0.472 | 0.306 | 0.188 | 0.165 | 0.456 | 0.344 | 0.28 | 0.144 | 0.162 | 0.969 | 0.955 | 0.49 | 0.265 | 0.232 |
| HCC-366 | 0.678 | 0.597 | 0.627 | 0.68 | 0.106 | 0.16 | 0.193 | 0.168 | 0.148 | 0.0681 | 0.479 | 0.404 | 0.251 | 0.0603 | 0.0454 | 0.837 | 1 | 0.441 | 0.216 | 0.046 |
| EMC-BAC-2 | 0.335 | 0.319 | 0.296 | 0.282 | 0.155 | 0.647 | 0.545 | 0.41 | 0.416 | 0.225 | 0.918 | 0.933 | 0.584 |  | 0.3 | 1.08 | 1 | 0.594 | 0.513 | 0.302 |
| NCI-H2405 | 0.224 | 0.204 | 0.197 | 0.205 | 0.193 | 0.536 | 0.521 | 0.34 | 0.306 | 0.172 | 0.753 | 0.625 | 0.518 | 0.283 | 0.277 | 1.1 | 1.02 | 0.926 | 0.365 | 0.303 |
| SK-MES-1 | 0.339 | 0.387 | 0.397 | 0.344 | 0.198 | 0.353 | 0.363 | 0.335 | 0.261 | 0.226 | 0.658 | 0.612 | 0.49 | 0.401 | 0.203 | 0.876 | 0.66 | 0.831 | 0.782 | 0.324 |
| NCI-H2170 | 0.602 | 0.552 | 0.701 | 0.619 | 0.436 | 0.283 | 0.304 | 0.308 | 0.284 | 0.277 | 1.03 | 0.909 | 0.562 | 0.897 | 0.481 | 1.05 | 1.03 | 1.01 | 0.841 | 0.268 |
| EPLC-272H | 0.327 | 0.364 | 0.387 |  | 0.412 | 0.327 | 0.265 | 0.231 | 0.264 | 0.103 | 0.295 | 0.271 | 0.317 | 0.268 | 0.201 | 0.761 | 0.61 | 0.512 | 0.269 | 0.0781 |

From the supplement of paper PMC10307832
